According to patent publication US6737383B1, “Herbicidal oxadiazolidines” (priority 1999, dated 2004):

Experiments:
blackgrass = test: Test B pre/postemergence blackgrass; format: in vivo, Alopecurus myosuroides
How it was run: (§1)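 Herbicidal effect was estimated by eye on a ten-point control scale after plants spent twelve to sixteen days in a greenhouse following soil or foliar treatment. Foliar sprays targeted plants at one to four leaves; all doses were formulated in a non-phytotoxic solvent with surfactant.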

surinam grass = test: Test B pre/postemergence surinam grass; format: in vivo, Brachiaria decumbens
How it was run: as §1

cocklebur = test: Test B pre/postemergence cocklebur; format: in vivo, Xanthium strumarium
How it was run: as §1

corn = test: Test B pre/postemergence corn; format: in vivo, Zea mays
How it was run: as §1

crabgrass = test: Test B pre/postemergence crabgrass; format: in vivo, Digitaria sanguinalis
How it was run: as §1

giant foxtail = test: Test B pre/postemergence giant foxtail; format: in vivo, Setaria faberii
How it was run: as §1

pigweed = test: Test B pre/postemergence pigweed; format: in vivo, Amaranthus retroflexus
How it was run: as §1

rape = test: Test B pre/postemergence rape; format: in vivo, Brassica napus
How it was run: as §1

soybean = test: Test B pre/postemergence soybean; format: in vivo, Glycine max
How it was run: as §1

sugar beet = test: Test B pre/postemergence sugar beet; format: in vivo, Beta vulgaris
How it was run: as §1

wheat = test: Test B pre/postemergence wheat; format: in vivo, Triticum aestivum
How it was run: as §1

purple nutsedge = test: Test B pre/postemergence purple nutsedge; format: in vivo, Cyperus rotundus
How it was run: as §1

rice = test: Test B flood test rice; format: in vivo, Oryza sativa
How it was run: (§2)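 Plants were grown to the 2-leaf stage before treatment with test chemical, then held in a greenhouse for twelve to sixteen days. Injury was visually rated against untreated controls on a 0–10 scale, where 0 is no effect and 10 is complete control.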

smallflower flatsedge = test: Test B flood test smallflower flatsedge; format: in vivo, Cyperus difformis
How it was run: as §2

duck salad = test: Test B flood test duck salad; format: in vivo, Heteranthera limosa
How it was run: as §2

bamyardgrass = test: Test B flood test barnyardgrass; format: in vivo, Echinochloa crus-galli
How it was run: as §2

[1] = Postemergence, Rate 62 g/ha, scale 0 to 10, 0 is no effect, 10 is complete control
[2] = Postemergence, Rate 250 g/ha, scale 0 to 10, 0 no effect, 10 complete control
[3] = Preemergence, Rate 62 g/ha, scale 0 to 10 (0 no effect, 10 complete control)
[4] = Preemergence, Rate 125 g/ha, scale 0 to 10 (0 no effect, 10 complete control)
[5] = Preemergence, Rate 250 g/ha, scale of 0 to 10 where 0 is no effect and 10 is complete control
[6] = Preemergence, Rate 500 g/ha, scale 0 (no effect) to 10 (complete control)
[7] = Rate 125 g/ha, Postemergence, scale 0 to 10, 0 no effect, 10 complete control
[8] = Rate 500 g/ha, Postemergence, scale 0 to 10, 0 no effect, 10 complete control
[9] = Rate 62 g/ha, headed Pre-emergence (flood test species), scale 0 to 10 (0 no effect, 10 complete control)
[10] = Rate 125 g/ha, Pre-emergence, flood test species, scale 0 to 10 where 0 is no effect and 10 is complete control
[11] = Rate 250 g/ha, headed Pre-emergence (flood test species), scale 0 to 10 (0 no effect, 10 complete control)
[12] = Rate 500 g/ha, headed Pre-emergence (flood test species), scale 0 to 10 (0 no effect, 10 complete control)

CCN(Cc1ccccc1)C(=O)n1oc(=O)n(-c2c(C)cccc2C)c1=O [Compound 70]
0: Blackgrass plant response rating (blackgrass; [1]) | Blackgrass plant response rating (blackgrass; [2]) | Blackgrass plant response rating (blackgrass; [3]) | Plant response rating, Blackgrass (blackgrass; [4]) | Plant response rating, Blackgrass (blackgrass; [5]) | Blackgrass plant response rating (blackgrass; [6]) | Blackgrass plant response rating (blackgrass; [7]) | Blackgrass plant response rating (blackgrass; [8]) | B. signalgrass plant response rating (surinam grass; [1]) | B. signalgrass plant response rating (surinam grass; [2]) | B. signalgrass plant response rating (surinam grass; [3]) | Plant response rating, B. signalgrass (surinam grass; [4]) | Plant response rating, B. signalgrass (surinam grass; [5]) | B. signalgrass plant response rating (surinam grass; [6]) | B. signalgrass plant response rating (surinam grass; [7]) | B. signalgrass plant response rating (surinam grass; Rate 500 g/ha, Postemergence, scale of 0 to 10 where 0 is no effect and 10 is complete control) | Cocklebur plant response rating (cocklebur; [1]) | Cocklebur plant response rating (cocklebur; [2]) | Cocklebur plant response rating (cocklebur; [3]) | Plant response rating, Cocklebur (cocklebur; [4]) | Plant response rating, Cocklebur (cocklebur; [5]) | Cocklebur plant response rating (cocklebur; [6]) | Cocklebur plant response rating (cocklebur; [7]) | Cocklebur plant response rating (cocklebur; [8]) | Corn plant response rating (corn; [1]) | Corn plant response rating (corn; [2]) | Corn plant response rating (corn; [3]) | Plant response rating, Corn (corn; [4]) | Plant response rating, Corn (corn; [5]) | Corn plant response rating (corn; [6]) | Corn plant response rating (corn; [7]) | Corn plant response rating (corn; [8]) | Crabgrass plant response rating (crabgrass; [1]) | Crabgrass plant response rating (crabgrass; [2]) | Crabgrass plant response rating (crabgrass; [3]) | Plant response rating, Crabgrass (crabgrass; [4]) | Plant response rating, Crabgrass (crabgrass; [5]) | Crabgrass plant response rating (crabgrass; [6]) | Crabgrass plant response rating (crabgrass; [7]) | Crabgrass plant response rating (crabgrass; [8]) | Giant foxtail plant response rating (giant foxtail; [1]) | Giant foxtail plant response rating (giant foxtail; [2]) | Giant foxtail plant response rating (giant foxtail; [3]) | Plant response rating, Giant foxtail (giant foxtail; [4]) | Plant response rating, Giant foxtail (giant foxtail; [5]) | Giant foxtail plant response rating (giant foxtail; [6]) | Giant foxtail plant response rating (giant foxtail; [7]) | Giant foxtail plant response rating (giant foxtail; [8]) | Redroot pigweed plant response rating (pigweed; [1]) | Redroot pigweed plant response rating (pigweed; [2]) | Redroot pigweed plant response rating (pigweed; [3]) | Plant response rating, Redroot pigweed (pigweed; [4]) | Plant response rating, Redroot pigweed (pigweed; [5]) | Redroot pigweed plant response rating (pigweed; [6]) | Redroot pigweed plant response rating (pigweed; [7]) | Redroot pigweed plant response rating (pigweed; [8]) | Rape plant response rating (rape; [1]) | Rape plant response rating (rape; [2]) | Rape plant response rating (rape; [3]) | Plant response rating, Rape (rape; [4]) | Plant response rating, Rape (rape; [5]) | Rape plant response rating (rape; [6]) | Rape plant response rating (rape; [7]) | Rape plant response rating (rape; [8]) | Soybean plant response rating (soybean; [1]) | Soybean plant response rating (soybean; [2]) | Soybean plant response rating (soybean; [3]) | Plant response rating, Soybean (soybean; [4]) | Plant response rating, Soybean (soybean; [5]) | Soybean plant response rating (soybean; [6]) | Soybean plant response rating (soybean; [7]) | Soybean plant response rating (soybean; [8]) | Sugarbeets plant response rating (sugar beet; [1]) | Sugarbeets plant response rating (sugar beet; [2]) | Sugarbeets plant response rating (sugar beet; [3]) | Plant response rating, Sugarbeets (sugar beet; [4]) | Plant response rating, Sugarbeets (sugar beet; [5]) | Sugarbeets plant response rating (sugar beet; [6]) | Sugarbeets plant response rating (sugar beet; [7]) | Sugarbeets plant response rating (sugar beet; [8]) | Wheat plant response rating (wheat; [1]) | Wheat plant response rating (wheat; [2]) | Wheat plant response rating (wheat; [3]) | Plant response rating, Wheat (wheat; [4]) | Plant response rating, Wheat (wheat; [5]) | Wheat plant response rating (wheat; [6]) | Wheat plant response rating (wheat; [7]) | Wheat plant response rating (wheat; [8]) | Nutsedge plant response rating (purple nutsedge; [1]) | Nutsedge plant response rating (purple nutsedge; [2]) | Nutsedge plant response rating (purple nutsedge; [3]) | Plant response rating, Nutsedge (purple nutsedge; [4]) | Plant response rating, Nutsedge (purple nutsedge; [5]) | Nutsedge plant response rating (purple nutsedge; [6]) | Nutsedge plant response rating (purple nutsedge; [7]) | Nutsedge plant response rating (purple nutsedge; [8]) | Rice plant response rating (rice; [9]) | Rice plant response rating (rice; [10]) | Rice plant response rating (rice; [11]) | Plant response rating, Rice (rice; [12]) | S. Flatsedge plant response rating (smallflower flatsedge; [9]) | S. Flatsedge plant response rating (smallflower flatsedge; [10]) | S. Flatsedge plant response rating (smallflower flatsedge; [11]) | Plant response rating, S. Flatsedge (smallflower flatsedge; [12]) | Ducksalad plant response rating (duck salad; [9]) | Ducksalad plant response rating (duck salad; [10]) | Ducksalad plant response rating (duck salad; [11]) | Plant response rating, Ducksalad (duck salad; [12]) | Barnyardgrass plant response rating (bamyardgrass; [9]) | Barnyardgrass plant response rating (bamyardgrass; [10]) | Barnyardgrass plant response rating (bamyardgrass; [11]) | Plant response rating, Barnyardgrass (bamyardgrass; [12])
